According to patent US6743806B2, “Active oxygen scavenger” (Otsuka Pharmaceutical Company, Limited, priority 2002, dated 2004):

Assays:
[1] = Hydroxyl radical scavenging efficacy (Fenton system, DMPO spin trap, EPR)
Procedure: Hydroxyl radical scavenging efficacy of cilostazol was determined in air-saturated phosphate buffer (10 mM) at room temperature. The reaction was initiated by addition of a small aliquot (5 μL) of Fe^2+ solution (10 mM FeSO4 in 10 mM HCl) to a buffer containing cilostazol, H2O2 (0.12 mM) and 5,5-dimethyl-1-pyrroline-N-oxide (DMPO) (1 mM). The sample was transferred quickly to flat quartz electron paramagnetic resonance (EPR) cell, and measurements were started immediately.
The EPR spectra of the spin-adduct of DMPO with the hydroxyl radical: DMPO/.OH was observed when DMPO reacted with hydroxyl radical generated by the Fenton system. The EPR spectra (.OH) are shown in the accompanying FIG. 1. Scavenging of hydroxyl radicals was confirmed by using catalase (0.510 U/ml) (data not shown).

[2] = Peroxyl radical absorbing capacity (PRAC) assay; conditions: 1 PRAC unit is the value of 1 μM of trolox, β-phycoerythrin fluorescence, 37° C.
Procedure: According to the method described by Cao et al. (Cao G, Alessio HM, Cutler RG (1993), Oxygen-radical absorbance capacity assay for antioxidants, Free Radic. Biol. Med 14: 303-311), the assay is based on production of peroxyl radicals by 2,2′-azobis(2-amidinopropane) hydrochloride (3 mM), a peroxyl radical generator, with subsequent oxidation of the reporter protein, β-phycoerythrin (16.7 nM) in 24 well plates. Into each sample well, either 20 μl of phosphate buffer or 20 μl of each concentration of cilostazol was included. After adding 2,2′-azobis(2-amidinopropane) hydrochloride, the reaction mixture was incubated at 37° C. Loss of fluorescence was measured every 5 minutes at the emission of 590 nm and excitation of 485 nm using Fluorescence Plate Reader (Bio-Tek Instruments, Inc., Winooski, USA). The PRAC value of the compound is reflected in the increase of area under curve of fluorescence versus time. Trolox was used as a reference for PRAC assay. The fluorescence just prior to addition of the 2,2′-azobis(2-amidinopropane) hydrochloride was estimated as the 100% value for that sample. The PRAC values were calculated by the following equation: [formula]
where 1 PRAC unit is the value of 1 μM of trolox.
The time-dependent decrease of β-phycoerythrin fluorescence in the absence (blank) and the presence of different concentrations of cilostazol is shown, in the accompanying FIG. 2. […]

O=C1CCc2cc(OCCCCc3nnnn3C3CCCCC3)ccc2N1 [cilostazol, 6-[4-(1-cyclohexyl-1H-tetrazol-5-yl)butoxy]-3,4-dihydrocarbostyril]
DMPO/.OH adduct EPR signals ([1]; 10^−5 M of cilostazol): almost ameliorated | IC50 ([1]; DMPO/.OH adduct formation, Fenton system, phosphate buffer 10 mM, room temperature, EPR, read-out: concentration required for inhibiting hydroxyl radical formation (IC50)): 2.58 ± 0.07 µM | PRAC value ([2]; 10^−4 M cilostazol): 1.938 unit | PRAC value ([2]; 10^−6 M cilostazol): 1.325 unit
